Tested on: mesenchymal stem cells (BMMSCs, ADMSCs) migrating into cancer cells (A549, H1975, PANC-1, U87MG)
Assay: Transwell migration of stem cells treated with ion channel inhibitor DIDS or ion channel antibodies
Format: cell-based
Settings: 500 μM DIDS or ion channel antibodies; all cancer cells used (A549, H1975, PANC-1, U87MG)
Procedure: In vitro mobility measurement of stem cells according to an embodiment of the present invention was performed using a transwell membrane bilayer plate having a pore size of 8 μm. Cancer cells for stimulating the stem cells were cultured in the layer under the membrane, and the stem cells were cultured in the upper chamber to allow the cells to penetrate downward. At this time, the mobility was measured through the number of stem cells infiltrated the membrane.
In order to investigate the effect of ion channel activity on the ability of stem cells to migrate into cancer cells, the present inventors performed an analysis similar to Example 1-1 using DIDS (4,4′-Diisothiocyano-2,2′-stilbenedisulfonic acid) which is an ion channel inhibitor and antibodies specifically binding to ion channels (SLC4A4, SLC4A7). Particularly, in the case of lung cancer cells, 5×10^4 of bone marrow-derived mesenchymal stem cells (BMMSCs) as a control group and lung cancer cells (A549 and H1975) as an experimental group were dispensed onto the lower well, respectively, and cultured at 37° C. for 24 hours. […] Subsequently, stem cells migrated into the lower well through the transwell membrane were counted trough a confocal fluorescence microscope in order to measure their mobility (FIGS. 3A to 4D).

In the case of `O=S(=O)(O)c1cc(N=C=S)ccc1C=Cc1ccc(N=C=S)cc1S(=O)(=O)O` [DIDS, 4,4′-Diisothiocyano-2,2′-stilbenedisulfonic acid], the “ability of the mesenchymal stem cells to migrate into cancer cells” value is reported as “decreased significantly”.

Reference: US20210008118A1, “METHOD FOR ENHANCING MIGRATION OF STEM CELLS INTO CANCER CELLS” (GACHON UNIVERSITY OF INDUSTRY-ACADEMIC COOPERATION …, priority 2019, published 2021)
